Test results as given in paper PMC6470523, “Introduction of Nonacidic Side Chains on 6-Ethylcholane Scaffolds in the Identification of Potent Bile Acid Receptor Agonists with Improved Pharmacokinetic Properties” (Molecules, 2019).
Converted amounts (≈) assume the structure as drawn.

Columns and labels:
[1] = Liver microsomal stability; type: in vitro ADME, mouse; settings: liver microsomes; for microsomal CLint at 1 µM / half-life at 1 µM: male, CD-1, mouse, pH 7.4, 1 μM compound, 37 °C; for half-life at 1 µM: read-out: t½
Description: (§1) Chromatography was performed using an Alliance pump system coupled to a Q-ToF Premiere (Waters Co., Milford, MA, USA). The mixture was separated on a Luna 5 µm C8(2) 100° A 150 × 2 mm from Phenomenex. The mobile phase consisted of 0.2% formic acid (FA) in water as solvent A and 0.2% FA in acetonitrile as solvent B at a flow rate of 200 μL/min. The gradient was as follows: 0–2 min (70% A and 30% B), 2–20 min (5% A and 95% B), 20–30 min (70% A and 30% B). The detection of analytes was achieved by electrospray ionization (ESI) in the positive mode with the appropriate MS/MS transitions, if necessary.
Male mouse (CD-1) liver microsomes (Sigma-Aldrich, St. Louis, MO, USA) were used. All incubations were performed in duplicate in a shaking water bath at 37 °C. The incubation mixtures contained 1 μM compound with 1% DMSO used as a vehicle, mouse liver microsomes (0.3 mg of microsomal protein per mL), 5 mM MgCl2, 1 mM NADP, 5 mM glucose 6-phosphate, 0.4 U·mL^−1 glucose 6-phosphate dehydrogenase, and 50 mM potassium phosphate buffer (pH 7.4) in a final volume of 0.5 mL. Aliquots were removed at 0, 5, 10, 20, 30, and 40 min after microsome addition and the reaction was stopped by adding 200 μL of ice-cold acetonitrile. After two hours, the samples were centrifuged for 10 min at 10,000 rpm, and the supernatants were transferred in matrix tubes for LC-MS/MS analysis. LC-MS/MS analysis were carried out setting the m/z window around the value of the MH^+ of the unmodified compounds.
Propranolol, known as a high hepatic clearance drug in rodents, was used as a quality-control compound for the microsomal incubations. The slope of the linear regression of the curve obtained reporting the natural logarithm of compound area versus incubation time (−k) was used in the conversion to in vitro t1/2 values by t1/2 = −ln(2)/k. In vitro intrinsic clearance (Clint expressed as μL/min/mg) was calculated according to the following formula: Clint = volume of reaction (µL)/t1/2(min)/protein of liver microsomes (mg). The percentage of unmodified compound has been calculated assuming the area of the compound peak at time 0 min as 100%.

[2] = Aqueous solubility measurement (PBS pH 7.4, LC-MS); type: physicochemical; settings: aqueous buffer, kinetic from dmso stock; aqueous solubility at pH 7.4 (PBS), 24 h room temperature
Description: as §1
Ten microliters of a 10 mM solution in DMSO of each compound was diluted either in 490 μL of PBS pH 7.4 or in organic solvent MeOH (in triplicate). The tubes were gently shaken 24 h at room temperature, then centrifuged for 5 min at 4000 rpm. 10 microliters of sample were diluted in 490 μL of MeOH. The solubility is determined by the ratio of mass signal area PBS/organic solvent.

human GPBAR1 = target: T1, human GPBAR1 (Homo sapiens, UniProt Q8TDU6); assay: GPBAR1 transactivation (CRE luciferase reporter) assay in HEK293T cells; type: cell-based; settings: for EC50: dose response 0.5 to 50 µM, 18 h; for GPBAR1 Eff (%) vs 6-ECDCA: maximum efficacy of compound (10 µM) relative to 6-ECDCA (1 µM) set as 100, CRE transactivation; for GPBAR1 Eff (%) vs TLCA: maximum efficacy of compound (10 µM) relative to TLCA (10 μM) set as 100, CRE transactivation
T1 construct: expressed in transfected cells; host or cells: HEK293T
T1 sequence (Q8TDU6 1-330): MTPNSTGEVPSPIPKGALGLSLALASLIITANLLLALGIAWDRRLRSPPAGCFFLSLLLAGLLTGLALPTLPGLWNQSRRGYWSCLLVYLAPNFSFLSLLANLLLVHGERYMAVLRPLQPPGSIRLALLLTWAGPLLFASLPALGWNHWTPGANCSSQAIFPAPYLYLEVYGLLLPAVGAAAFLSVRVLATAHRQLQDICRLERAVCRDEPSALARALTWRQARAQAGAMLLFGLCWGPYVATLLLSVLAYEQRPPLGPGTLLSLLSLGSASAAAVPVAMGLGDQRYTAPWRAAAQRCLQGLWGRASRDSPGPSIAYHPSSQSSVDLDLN
Description: (§2) To evaluate FXR mediated transactivation, HepG2 cells were transfected with 100 ng of human pSG5-FXR, 100 ng of human pSG5-RXR, 200 ng of the reporter vector p(hsp27)-TK-LUC containing the FXR response element IR1 cloned from the promoter of heat shock protein 27 (hsp27) and with 100 ng of pGL4.70 (Promega), a vector encoding the human Renilla gene. To evaluate GPBAR1 mediated transactivation, HEK293T cells were transfected with 200 ng of human pGL4.29 (Promega), a reporter vector containing a cAMP response element (CRE) that drives the transcription of the luciferase reporter gene luc2P, with 100 ng of pCMVSPORT6-human GPBAR1, and with 100 ng of pGL4.70. […] After treatments, 10 μL of cellular lysates were read using a Dual-Luciferase Reporter Assay System (Promega Italia srl, Milan, Italy) according manufacturer specifications using the Glomax20/20 luminometer (Promega Italia srl, Milan, Italy). Luciferase activities were assayed and normalized with Renilla activities.
(§3) At 18 h post stimulations, cellular lysates were assayed for luciferase and Renilla activities using the Dual-Luciferase Reporter Assay System (E1980, Promega Italia srl, Milan, Italy). Luminescence was measured using Glomax 20/20 luminometer (Promega Iralia srl, Milan, Italy). Luciferase activities were normalized with Renilla activities.

human FXR = target: T2, human FXR (Homo sapiens, UniProt Q96RI1); assay: FXR transactivation luciferase reporter assay in HepG2 cells; type: cell-based; settings: HepG2 cells; for EC50: dose response 0.5 to 50 µM, 18 h; for FXR Eff (%) vs 6-ECDCA: maximum efficacy of compound (10 µM) relative to 6-ECDCA (1 µM) set as 100%; for FXR Eff (%) vs 6-ECDCA / FXR Eff (%) vs CDCA: FRE transactivation; for FXR Eff (%) vs CDCA: maximum efficacy of compound (10 µM) relative to CDCA (10 μM) set as 100%
T2 construct: expressed in transfected cells; host or cells: HepG2
T2 sequence (Q96RI1 1-486): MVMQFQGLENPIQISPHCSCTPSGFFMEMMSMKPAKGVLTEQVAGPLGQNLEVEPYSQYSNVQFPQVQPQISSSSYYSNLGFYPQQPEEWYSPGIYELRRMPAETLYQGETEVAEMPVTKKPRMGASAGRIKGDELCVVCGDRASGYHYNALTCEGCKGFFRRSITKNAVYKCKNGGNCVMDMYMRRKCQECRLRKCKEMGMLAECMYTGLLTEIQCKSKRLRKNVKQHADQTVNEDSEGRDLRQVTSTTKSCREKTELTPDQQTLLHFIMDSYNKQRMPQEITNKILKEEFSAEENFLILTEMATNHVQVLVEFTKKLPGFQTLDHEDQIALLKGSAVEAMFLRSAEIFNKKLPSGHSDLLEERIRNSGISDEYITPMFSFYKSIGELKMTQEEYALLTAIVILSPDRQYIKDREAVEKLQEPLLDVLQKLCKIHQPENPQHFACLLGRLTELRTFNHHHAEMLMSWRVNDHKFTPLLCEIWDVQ
T2 sequence (P19793 1-462 partner): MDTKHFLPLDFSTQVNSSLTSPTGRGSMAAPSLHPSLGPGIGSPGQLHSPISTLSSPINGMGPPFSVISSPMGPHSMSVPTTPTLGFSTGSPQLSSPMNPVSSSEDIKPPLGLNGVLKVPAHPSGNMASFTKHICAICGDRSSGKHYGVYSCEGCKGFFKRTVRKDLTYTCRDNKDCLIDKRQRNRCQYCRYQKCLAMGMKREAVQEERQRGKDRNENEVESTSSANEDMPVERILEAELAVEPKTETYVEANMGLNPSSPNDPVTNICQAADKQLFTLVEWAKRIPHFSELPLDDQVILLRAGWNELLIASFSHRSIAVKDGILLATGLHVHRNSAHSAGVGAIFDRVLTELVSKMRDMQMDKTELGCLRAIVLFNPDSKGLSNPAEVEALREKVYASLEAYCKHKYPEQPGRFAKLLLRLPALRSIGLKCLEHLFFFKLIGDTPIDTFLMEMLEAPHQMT
Description: as §2, §3

SHP mRNA in HepG2 cells = assay: RT-PCR of FXR target gene SHP mRNA in HepG2 cells; type: cell-based, human; settings: 1 and 10 µM, 18 h, vs CDCA 10 µM, Figure 2B
Description: (§4) HepG2 and GLUTag cells were plated at 1 × 10^6 cells/well in a six well plate. […] Total RNA was isolated from cells using the TRIzol reagent according to the manufacturer's specifications (Invitrogen, Carlsbad, CA, USA). One microgram of purified RNA was treated with DNase-I and reverse transcribed with Superscript II (Invitrogen, Carlsbad, CA, USA). For Real Time PCR, 10 ng template was dissolved in 25 μL containing 200 nmol/L of each primer and 12.5 μL of 2× SYBR FAST Universal ready mix (Invitrogen, Carlsbad, CA, USA). All reactions were performed in triplicate, and the thermal cycling conditions were as follows: 2 min at 95 °C, followed by 40 cycles of 95 °C for 20 s and 60 °C for 30 s in StepOnePlus (Applied Biosystems, Foster City, CA, USA). The relative mRNA expression was calculated accordingly to the Ct method. Primers were designed using the software PRIMER31 using published data obtained from the NCBI database. Forward and reverse primer sequences were the following: human GAPDH, [NT]; human SHP, [NT]; mouse GAPDH, [NT]; mouse pro-glucagon, [NT]

[3] = test system: pro-glucagon mRNA in GLUTag cells; assay: RT-PCR of GPBAR1 target gene pro-glucagon mRNA in GLUTag cells; type: cell-based, murine; settings: 1 and 10 µM, 18 h, Figure 2A
Description: as §4

Row | SMILES | Percentage of compound remaining in solution after 40 min incubation [1] | microsomal CLint at 1 µM [1] | half-life at 1 µM [1] | solubility at 24 h [2] | EC50 (human GPBAR1) | GPBAR1 Eff (%) vs 6-ECDCA (human GPBAR1) | GPBAR1 Eff (%) vs TLCA (human GPBAR1) | EC50 (human FXR) | FXR Eff (%) vs 6-ECDCA (human FXR) | FXR Eff (%) vs CDCA (human FXR) | SHP mRNA expression (in words) (SHP mRNA in HepG2 cells) | pro-glucagon mRNA expression (in words) [3]
1 | C=CC(C)C1CCC2C3C(O)C(CC)C4CC(O)CCC4(C)C3CCC12C (stereo not drawn) [compound 1, 6α-Ethyl-3α, 7α-dihydroxy-24-nor-5β-chol-23-ene] | 42.2% | 52.6 µL/min/mg | 0.73 h | 201 µM (≈ 75.3 µg/mL) | 140 ± 32 nM | 367.1% | 79% | 1800 ± 500 nM | 45.6% | 252% | – | –
2 | CCC1C(O)C2C3CCC(C(C)CO)C3(C)CCC2C2(C)CCCCC12 (stereo not drawn) [compound 6, 6α-Ethyl-7α-hydroxy-23,24-dinor-5β-cholan-22-ol] | 79.2% | 19.7 µL/min/mg | 1.96 h | 162 µM (≈ 58.7 µg/mL) | – | 87.5% | 19% | 13700 ± 2050 nM | 33.4% | 185% | more potent than CDCA | failed to regulate
3 | CCC(C)C1CCC2C3C(O)C(CC)C4CC(O)CCC4(C)C3CCC12C (stereo not drawn) [compound 2, 6α-Ethyl-3α, 7α -dihydroxy-24-nor-5β-cholane] | 72.8% | 25 µL/min/mg | 1.54 h | 176 µM (≈ 66.3 µg/mL) | 1500 ± 290 nM | 255.2% | 53% | 1300 ± 120 nM | 46.5% | 249% | – | –
